Laboratory results: ChEMBL document CHEMBL4177721, “Synthesis, antitumor activity, and cytotoxicity of 4-substituted 1-benzyl-5-diphenylstibano-1H-1,2,3-triazoles” (Bioorg Med Chem Lett, 2018)
Activity calls are given as the source filed them. No cut-off for these calls is given here.

System: KB
Assay: Antitumor activity against human KB cells at 0.5 uM incubated for 72 hrs by MTT assay
Type: functional, cell-based
Conditions: not given

Compound	Activity
1-Benzyl-4-(p-tolyl)-5-(diphenylstibano)-1H-1,2,3-triazole	Active

System: NUGC-3
Assay: Antitumor activity against human NUGC3 cells incubated for 72 hrs by MTT assay
Type: functional, cell-based
Conditions: NUGC-3, 72 h

Compound	IC50
c1ccc(Cn2cc(-c3ccccc3)nn2)cc1	836 µM
COc1ccc(-c2cn(Cc3ccccc3)nn2)cc1	158 µM
Cc1ccc(-c2cn(Cc3ccccc3)nn2)cc1	129 µM
CCCCc1cn(Cc2ccccc2)nn1	> 100 µM
C1=C(c2cn(Cc3ccccc3)nn2)CCCC1	> 100 µM
FC(F)(F)c1ccc(-c2cn(Cc3ccccc3)nn2)cc1	81 µM

System: P388
Assay: Antitumor activity against mouse P388 cells at 0.5 uM incubated for 72 hrs by MTT assay
Type: functional, cell-based
Conditions: not given

Compound	Activity
1-Benzyl-4-(p-tolyl)-5-(diphenylstibano)-1H-1,2,3-triazole	Active

System: P388
Assay: Antitumor activity against mouse P388 cells incubated for 72 hrs by MTT assay
Type: functional, cell-based
Conditions: P388, 72 h

Compound	IC50
c1ccc(Cn2cc(-c3ccccc3)nn2)cc1	99.1 µM
CCCCc1cn(Cc2ccccc2)nn1	217 µM
C1=C(c2cn(Cc3ccccc3)nn2)CCCC1	49.6 µM

The next lines start with the values.

IC50	Compound
94.1 µM	Cc1ccc(-c2cn(Cc3ccccc3)nn2)cc1
83.8 µM	COc1ccc(-c2cn(Cc3ccccc3)nn2)cc1
17.5 µM	FC(F)(F)c1ccc(-c2cn(Cc3ccccc3)nn2)cc1

System: HL-60
Assay: Antitumor activity against human HL60 cells incubated for 72 hrs by MTT assay
Type: functional, cell-based
Conditions: HL-60, 72 h

Compound	IC50
c1ccc(Cn2cc(-c3ccccc3)nn2)cc1	> 100 µM
CCCCc1cn(Cc2ccccc2)nn1	> 100 µM
C1=C(c2cn(Cc3ccccc3)nn2)CCCC1	171 µM

Further lines, results first:

IC50	Compound
> 100 µM	Cc1ccc(-c2cn(Cc3ccccc3)nn2)cc1
> 100 µM	COc1ccc(-c2cn(Cc3ccccc3)nn2)cc1
171 µM	FC(F)(F)c1ccc(-c2cn(Cc3ccccc3)nn2)cc1

System: B16-F10
Assay: Antitumor activity against mouse B16F10 cells at 0.5 uM incubated for 72 hrs by MTT assay
Type: functional, cell-based
Conditions: not given

Compound	Activity
1-Benzyl-4-(p-tolyl)-5-(diphenylstibano)-1H-1,2,3-triazole	Active

System: DLD-1
Assay: Antitumor activity against human DLD1 cells incubated for 72 hrs by MTT assay
Type: functional, cell-based
Conditions: DLD-1, 72 h

Compound	IC50
c1ccc(Cn2cc(-c3ccccc3)nn2)cc1	> 100 µM
CCCCc1cn(Cc2ccccc2)nn1	> 100 µM
C1=C(c2cn(Cc3ccccc3)nn2)CCCC1	> 100 µM

Further lines, results first:

IC50	Compound
102 µM	Cc1ccc(-c2cn(Cc3ccccc3)nn2)cc1
139 µM	COc1ccc(-c2cn(Cc3ccccc3)nn2)cc1
74.3 µM	FC(F)(F)c1ccc(-c2cn(Cc3ccccc3)nn2)cc1

System: B16-F10
Assay: Antitumor activity against mouse B16F10 cells incubated for 72 hrs by MTT assay
Type: functional, cell-based
Conditions: B16-F10, 72 h

Compound	IC50
c1ccc(Cn2cc(-c3ccccc3)nn2)cc1	96.1 µM
CCCCc1cn(Cc2ccccc2)nn1	421 µM
C1=C(c2cn(Cc3ccccc3)nn2)CCCC1	45.5 µM

Other lines, results leading:

IC50	Compound
66.4 µM	Cc1ccc(-c2cn(Cc3ccccc3)nn2)cc1
88.5 µM	COc1ccc(-c2cn(Cc3ccccc3)nn2)cc1
35.4 µM	FC(F)(F)c1ccc(-c2cn(Cc3ccccc3)nn2)cc1

System: HL-60
Assay: Antitumor activity against human HL60 cells at 0.5 uM incubated for 72 hrs by MTT assay
Type: functional, cell-based
Conditions: not given

Compound	Activity
1-Benzyl-4-(p-tolyl)-5-(diphenylstibano)-1H-1,2,3-triazole	Active

System: HT-1080
Assay: Antitumor activity against human HT1080 cells at 0.5 uM incubated for 72 hrs by MTT assay
Type: functional, cell-based
Conditions: not given

Compound	Activity
1-Benzyl-4-(p-tolyl)-5-(diphenylstibano)-1H-1,2,3-triazole	Active

System: MCF7
Assay: Antitumor activity against human MCF7 cells incubated for 72 hrs by MTT assay
Type: functional, cell-based
Conditions: MCF7, 72 h

Compound	IC50
c1ccc(Cn2cc(-c3ccccc3)nn2)cc1	490 µM
CCCCc1cn(Cc2ccccc2)nn1	> 100 µM
C1=C(c2cn(Cc3ccccc3)nn2)CCCC1	> 100 µM

Now from value to compound:

IC50	Compound
253 µM	Cc1ccc(-c2cn(Cc3ccccc3)nn2)cc1
231 µM	COc1ccc(-c2cn(Cc3ccccc3)nn2)cc1
162 µM	FC(F)(F)c1ccc(-c2cn(Cc3ccccc3)nn2)cc1

System: MCF7
Assay: Antitumor activity against human MCF7 cells at 0.5 uM incubated for 72 hrs by MTT assay
Type: functional, cell-based
Conditions: not given

Compound	Activity
1-Benzyl-4-(p-tolyl)-5-(diphenylstibano)-1H-1,2,3-triazole	Active

System: HT-1080
Assay: Antitumor activity against human HT1080 cells incubated for 72 hrs by MTT assay
Type: functional, cell-based
Conditions: HT-1080, 72 h

Compound	IC50
c1ccc(Cn2cc(-c3ccccc3)nn2)cc1	651 µM
CCCCc1cn(Cc2ccccc2)nn1	> 100 µM
C1=C(c2cn(Cc3ccccc3)nn2)CCCC1	219 µM

Next, values leading:

IC50	Compound
84.4 µM	Cc1ccc(-c2cn(Cc3ccccc3)nn2)cc1
146 µM	COc1ccc(-c2cn(Cc3ccccc3)nn2)cc1
57.7 µM	FC(F)(F)c1ccc(-c2cn(Cc3ccccc3)nn2)cc1

System: KB
Assay: Antitumor activity against human KB cells incubated for 72 hrs by MTT assay
Type: functional, cell-based
Conditions: not given

Compound	IC50
c1ccc(Cn2cc(-c3ccccc3)nn2)cc1	> 100 µM
CCCCc1cn(Cc2ccccc2)nn1	> 100 µM
C1=C(c2cn(Cc3ccccc3)nn2)CCCC1	> 100 µM

Continued, values first:

IC50	Compound
79.5 µM	Cc1ccc(-c2cn(Cc3ccccc3)nn2)cc1
86.6 µM	COc1ccc(-c2cn(Cc3ccccc3)nn2)cc1
60.2 µM	FC(F)(F)c1ccc(-c2cn(Cc3ccccc3)nn2)cc1

System: DLD-1
Assay: Antitumor activity against human DLD1 cells at 0.5 uM incubated for 72 hrs by MTT assay
Type: functional, cell-based
Conditions: not given

Compound	Activity
1-Benzyl-4-(p-tolyl)-5-(diphenylstibano)-1H-1,2,3-triazole	Active

System: not listed separately
Assay: Cytotoxicity against bovine aorta vascular endothelial cells assessed as reduction in cell viability incubated for 24 hrs by MTT assay
Type: cell-based, Bos taurus
Conditions: cattle

Compound	CC50 at 24 h
c1ccc(Cn2cc(-c3ccccc3)nn2)cc1	> 100 µM
COc1ccc(-c2cn(Cc3ccccc3)nn2)cc1	> 100 µM
Cc1ccc(-c2cn(Cc3ccccc3)nn2)cc1	> 100 µM
CCCCc1cn(Cc2ccccc2)nn1	> 100 µM
C1=C(c2cn(Cc3ccccc3)nn2)CCCC1	> 100 µM
FC(F)(F)c1ccc(-c2cn(Cc3ccccc3)nn2)cc1	> 100 µM

System: NUGC-3
Assay: Antitumor activity against human NUGC3 cells at 0.5 uM incubated for 72 hrs by MTT assay
Type: functional, cell-based
Conditions: not given

Compound	Activity
1-Benzyl-4-(p-tolyl)-5-(diphenylstibano)-1H-1,2,3-triazole	Active
